Where a chain is given by its changes, count along the chain named.

The target of test [1] is T1, NTAN1 T73A (Homo sapiens, UniProt Q96AB6, T73A).
T1 construct: The gene for full-length NTAN1 was cloned into pET-21a(+); made in house; host or cells: E. coli Rosetta 2(DE3)
T1 sequence (Q96AB6 1-310 T73A): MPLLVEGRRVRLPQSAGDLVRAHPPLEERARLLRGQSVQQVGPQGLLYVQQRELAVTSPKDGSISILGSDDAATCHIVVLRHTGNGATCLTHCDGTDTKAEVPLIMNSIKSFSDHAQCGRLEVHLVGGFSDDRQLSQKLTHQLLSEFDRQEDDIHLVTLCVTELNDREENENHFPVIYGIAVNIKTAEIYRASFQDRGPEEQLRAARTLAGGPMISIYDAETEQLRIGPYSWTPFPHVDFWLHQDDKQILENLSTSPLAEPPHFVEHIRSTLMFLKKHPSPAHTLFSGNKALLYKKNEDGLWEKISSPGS
The experiment in a line: In vitro deamidation assay, NTAN1 T73A mutant. Conditions: substrate NRAAA, 100 μM, 37 °C, pH 7.0, LC-MS (Figure 3g); three independent experiments. Type of test: biochemical. An excerpt:
(§1) NTAN1 mutants were constructed using QuikChange Ⅱ Site-Directed Mutagenesis Kit (Agilent Technologies, Santa Clara, CA, USA). NTAN1 mutants, Q51A, S69A, T73A, T74A, C75A, H92A, S254A, T255A, and E260A were generated. The mutants were expressed and purified as for NTAN1.
(§2) Peptides with Nt-Asn which mimic potential substrates of NTAN1 were synthesized: NRA, NRAA, NRAAA, NRQVA, NRQVAA, NRQVAAA, NFAAR, NLAAR, NRAAR, NAAAR, NNAAR, NPAAR, NGAAR, and NDAAR. Non-Nt-Asn peptides, QRAAA and VRAAA, were also synthesized. NTAN1 (at concentrations of 0.5 μM, 0.16 μM, or 0.04 μM) and the peptides (at a concentration of 100 μM) were mixed and incubated at 37 °C in a buffer containing 200 mM NaCl and 10 mM HEPES-NaOH (pH 7.0). […] The deamidation coefficient of peptides catalyzed by NTAN1 was assessed by the slope of exponential curve drawn from the concentration of the substrate over incubation time.
(§3) The peptides were quantified by an LC-MS system (1260 Infinity/6430 Triple Quad, Agilent Technologies) equipped with a binary pump (G1312B), a thermostated column compartment (G1316C), a thermostat (G1330B), and an autosampler (G1367E). […] The data acquisition and processing were performed by using MassHunter Workstation Software Quantitative Analysis (Version B.05.00; Agilent Technologies, Santa Clara, CA, USA). […]

Test [2] concerns NTAN1 S69A. The experiment in a line: In vitro deamidation assay, NTAN1 S69A mutant. Type of test: biochemical, human. The following applies: substrate NRAAA, 100 μM, 37 °C, pH 7.0, LC-MS (Figure 1d); three independent experiments.
Source text: as §1, §2, §3

The target of test [3] is T2, NTAN1 H92A (Homo sapiens, UniProt Q96AB6, H92A).
T2 construct: The gene for full-length NTAN1 was cloned into pET-21a(+); made in house; host or cells: E. coli Rosetta 2(DE3)
T2 sequence (Q96AB6 1-310 H92A): T1 sequence (Q96AB6 1-310 T73A) with A73T, H92A
The experiment in a line: In vitro deamidation assay, NTAN1 H92A mutant. Type of test: biochemical. Conditions: substrate NRAAA, 100 μM, 37 °C, pH 7.0, LC-MS; vs wild-type (Figure 1f); three independent experiments.
Source text: as §1, §2, §3

The target of test [4] is T3, NTAN1 E260A (Homo sapiens, UniProt Q96AB6, E260A).
T3 construct: The gene for full-length NTAN1 was cloned into pET-21a(+); made in house; host or cells: E. coli Rosetta 2(DE3)
T3 sequence (Q96AB6 1-310 E260A): T1 sequence (Q96AB6 1-310 T73A) with A73T, E260A
The experiment in a line: In vitro deamidation assay, NTAN1 E260A mutant. Type of test: biochemical. Conditions: substrate NRAAA, 100 μM, 37 °C, pH 7.0, LC-MS (Figure 3d); three independent experiments.
Source text: as §1, §2, §3

The target in test [5] is T4, NTAN1 T255A (Homo sapiens, UniProt Q96AB6, T255A).
T4 construct: The gene for full-length NTAN1 was cloned into pET-21a(+); made in house; host or cells: E. coli Rosetta 2(DE3)
T4 sequence (Q96AB6 1-310 T255A): T1 sequence (Q96AB6 1-310 T73A) with A73T, T255A
The experiment in a line: In vitro deamidation assay, NTAN1 T255A mutant. Type of test: biochemical. Conditions: substrate NRAAA, 100 μM, 37 °C, pH 7.0, LC-MS (Figure 3c); three independent experiments.
Source text: as §1, §2, §3

Take “NRAAA [synthesized peptide with Nt-Asn, 5 mer model substrate of NTAN1]”: the “Enzymatic activity of NTAN1 T73A” value in test [1] is given as “abolished”. In test [2], the “Fold lower deamidation activity of NTAN1 S69A than wild-type NTAN1” value was “approximately 5 fold”. In addition, the “Deamidation activity of NTAN1 H92A” value in test [3] is reported as “completely abolished”. Moreover, the “Deamidation activity of NTAN1 E260A” value in test [4] is listed as “lost its deamidation activity”. In addition, in test [5], the “Enzymatic activity of NTAN1 T255A” value is “abolished”.

The record behind these values is paper PMC7022378, “Structural Analyses on the Deamidation of N-Terminal Asn in the Human N-Degron Pathway” (Biomolecules, 2020).
